# Tests used:
# NASH model mice = experiment: NASH mouse model, histopathological scoring of liver sections; assay type: in vivo; conditions: 30 mg/kg daily; for Hepatocyte ballooning ± SE: score 0-2; for Portal inflammation ± SE / Lobular Inflammation ± SE / Steatosis ± SE: score 0-3; for Fibrosis Stage ± SE: score 0-4; for NAFLD activity score (NAS) ± SE: score 0-8
# Description: Four separate groups of mice were given either 0.5% methylcellulose (as Vehicle) or AZD3355 at 10 mg/kg (low dose) body weight of mice or 30 mg/kg (high dose) body weight of mice by twice daily (BID (5 days/week)) and OCA at 30 mg/kg body weight of mice by daily (QD (5 days/week)) through oral route for up to next 12 weeks (week 13 to week 24). Them last group of mice were not given any drug or vehicle treatment, as No Tx—24 weeks and maintained in parallel with treatment/vehicle groups. Usually all doses were given at early morning and the second daily dose of AZD3355 at evening (10 hours of intervals). All animals were closely monitored the health conditions and behavior.
# A piece of tissue from large liver lobe was fixed in 10% Formalin Buffered (Astral Diagnostics Incorporated NJ) embedded in paraffin and microtome sectioning were performed. Slides containing tissue sections were baked at 60° C. for 1 hour and re-hydrated through xylene followed by graded ethanol (100%, 95%, 85% and 70%) into distilled water and processed in either Picrosirius red/Fast green or hematoxylin and eosin staining.
# A total of 2 sections/animal were stained with H&E staining performed by standard protocol.
# Steatosis, hepatocyte ballooning, lobular inflammation, portal inflammation and fibrosis of picroserious red/fast green and H&E stained liver section were scored according to the NASH Clinical Research Network (NASH CRN) scoring system in a blinded fashion by an expert hepato-pathologist in Icahn School of Medicine at Mount Sinai. NAFLD activity score (NAS) was calculated according to Brunt criteria and range from 0-8. NAS was calculated by the sum of scores of steatosis (0-3), hepatocyte ballooning (0-2) and lobular inflammation (0-3). NAS score of >5.0 strongly correlated with “definite-NASH” whereas <3 correlated with “not-NASH”. Fibrosis (0-4) or portal inflammation (0-3) scores were assessed separately and not included in NAS.
# LX-2 cells [1] = experiment: Fibrogenic gene expression by RT-qPCR; assay type: cell-based, human; conditions: 48 and 72 hours
# Description: The following fibrogenic gene expressions were quantified by RT-qPCR: • 1. Collagen1α1 (Col1α1); • 2. Alpha Smooth Muscle Actin (αSMA); • 3. Beta PDGF receptor (β-PDGFR); • 4. Transforming growth factor-β receptor1 (TGFβ-R1); • 5. Tissue inhibitor of metalloproteinase—1 (TIMP1); • 6. Tissue inhibitor of metalloproteinase—2 (TIMP2); and • 7. Matrix Metalloproteinase 2 (MMP2).
# The kinase inhibitor sorafenib (7.5 μM concentration) was used as positive control and run in parallel. 150,000 LX-2 cells or 200,000 phHSCs per well were plated on 6-well plate dish. Cells were starved overnight in DMEM supplemented with 0.1% BSA (without antibiotic). Cells were then incubated with either AZD3355 or sorafenib at the indicated concentration and duration. Cells were harvested and total RNA was extracted using RNeasy Mini Kit (Qiagen, CA). 0.5 μg of total RNA was used for reverse transcription with ‘RNA to cDNA EcoDry Premix (Double Primed) Kit’ (Clontech, CA). Expression of fibrogenic genes were measured by qPCR using custom designed primers (Sigma-Aldrich, MO) and iQ SYBR Green Supermix (Bio-Rad, CA) on a LightCycler 480 II (Roche Diagnostics Corporation, IN) instrument. Glyceraldehyde-3-phosphate dehydrogenase (GAPDH), […] (RPII), α-tubulin and β-actin genes were tested to determine the best fit for housekeeping gene of the study. […]
# LX-2 cells [2] = experiment: Fibrogenic protein expression by western blot and densitometry from cell lysate; assay type: cell-based, human; conditions: LX2 cells, 48 or 72 hours, 30 nM or 100 nM AZD3355 or sorafenib
# Description: (§1) Western blot and RT-qPCR experiments were run in parallel. 150,000 LX-2 cells or 200,000 phHSCs per well were plated on a 6-well plate dish. Cells were starved overnight in DMEM supplemented with 0.1% BSA (without antibiotic). Cells were then incubated with either AZD3355 or sorafenib at the indicated concentration and duration. Cells were harvested and lysed using RIPA buffer (50 mM Tris-HC1 pH8.0, 150 mM NaCl, 1% IGEPAL, 0.5% sodium deoxycholate and 0.1% SDS) along with Pierce Protease Inhibitor Mini Tablets, EDTA-Free (ThermoScientific, IL). Total protein was measured by Bradford colorimetric assay using Protein Assay Dye Reagent Concentrate (Bio-Rad, CA). […] After hybridized with HRP conjugated secondary antibody (either Goat anti-rabbit HRP (Jackson ImmunoResearch Laboratories, PA) or anti-mouse IgG-HRP (Cell Signaling Technology, MA) the membrane was treated with Immobilon Western Chemiluminescent HRP substrate (Millipore, MA) and the signals were captured with Amersham Imager 6000 (GE Healthcare, PA). 210 kD of Col1α1, 72 kD of MMP2 and 42 kD of α-SMA bands were recognized by respective antibody. 37 kD band of GAPDH was probed as loading control. For densitometric measurement of the protein bands, images were exported and analyzed using ImageJ 1.50 f software and bands were normalized to the loading control, GAPDH.
# phHSCs = experiment: as above; assay type: cell-based, human; conditions: 48 or 72 hours
# Description: as §1
# human liver slices = experiment: Liver slice assay, histopathology and H&E staining; assay type: cell-based; conditions: 24 hours
# Description: Ten human liver pieces were collected from the Mount Sinai biorepository. The samples were prepared by coring the liver with 8 mm cylindrical coring tools. The liver cores were kept in ice cold WE medium, with GlutaMAX supplemental. A liver core was then mounted on a specimen plate with cyanoacrylate adhesive. Liver slices (approximately 200 μm in thickness) were placed in ice cold Krebs-Henesleit buffer in the presence of carbogen gas. There was then a 1 hour pre-incubation in WE GlutaMAX media with gentamicin in 95% O2 and 5% CO2 at 37° C. in a humidified rocker chamber to restore ATP levels.
# The liver slices were then cultured in WE GlutaMAX media with gentamicin in 95% O2 and 5% CO2 at 37° C. in a humidified rocker chamber with slow 70 rpm rocking in the presence of AZD3355 in the amounts of 250 nM, 500 nM, 1000 nM, or 2000 nM, or sorafenib at 1000 nM., or control vehicle (saline water).
# After 24 hours, the tissue slices were harvested for either RNA isolation and quantitative PCR for measurements of Col1α1, TNFα, and IL-6 expression, or for histopathology and hematoxylin and eosin (H&E) staining as described in Example 3.
# [3] = tested on: carbon tetrachloride-induced liver injury; conditions: in vivo; cited from earlier work
smiles,measurement,setting,value
"CC[C@H]1[C@@H](O)[C@@H]2[C@H](CC[C@]3(C)[C@@H]([C@H](C)CCC(=O)O)CC[C@@H]23)[C@@]2(C)CC[C@@H](O)C[C@@H]12 [OCA, Obeticholic acid, reference compound]",Hepatocyte ballooning ± SE,"NASH model mice; ♀ Mice, vehicle 1.2 ± 0.1",1.1 ± 0.2
same,Portal inflammation ± SE,"NASH model mice; ♀ Mice, vehicle 1.6 ± 0.1",1.0 ± 0.2
same,Lobular Inflammation ± SE,"NASH model mice; ♀ Mice, vehicle 2.3 ± 0.1",1.6 ± 0.1
same,Steatosis ± SE,"NASH model mice; ♀ Mice, vehicle 2.5 ± 0.1",2.0 ± 0.2
same,Fibrosis Stage ± SE,"NASH model mice; ♀ Mice, vehicle 3.0 ± 0.1",2.2 ± 0.1
same,NAFLD activity score (NAS) ± SE,"NASH model mice; ♀ Mice, vehicle 6.1 ± 0.4",4.7 ± 0.6
same,Steatohepatitis Grade ± SE,"NASH model mice; ♀ Mice, vehicle 1.8 ± 0.2",1.4 ± 0.3
same,Hepatocyte ballooning ± SE,"NASH model mice; ♂ Mice, vehicle 1.7 ± 0.1",1.0 ± 0.2
same,Portal inflammation ± SE,"NASH model mice; ♂ Mice, vehicle 2.0 ± 0.1",1.3 ± 0.2
same,Steatosis ± SE,"NASH model mice; ♂ Mice, vehicle 2.7 ± 0.1",2.0 ± 0.2
same,Lobular Inflammation ± SE,"NASH model mice; ♂ Mice, vehicle 2.8 ± 0.1",1.9 ± 0.2
same,Fibrosis Stage ± SE,"NASH model mice; ♂ Mice, vehicle 3.3 ± 0.1",2.9 ± 0.1
same,NAFLD activity score (NAS) ± SE,"NASH model mice; ♂ Mice, vehicle 7.2 ± 0.3",5.0 ± 0.6
same,Steatohepatitis Grade ± SE,"NASH model mice; ♂ Mice, vehicle 2.6 ± 0.2",1.5 ± 0.3
"CNC(=O)c1cc(Oc2ccc(NC(=O)Nc3ccc(Cl)c(C(F)(F)F)c3)cc2)ccn1 [Sorafenib, sorafenib]","gene expression of pro-fibrogenic genes Col1α1, αSMA, βPDGF-R, TGFβ-R1, TIMP1, TIMP2, MMP2",LX-2 cells [1],downregulated
same,protein expression of Col1α1 (western blot),LX-2 cells [2],no change
same,protein expression of Col1α1 (western blot),phHSCs,no change
same,liver cells viability (H&E),human liver slices,did not change
NCC(CC(=O)O)c1ccc(Cl)cc1 (stereo not shown) [baclofen],liver injury due to carbon tetrachloride,[3],attenuates injury
